Source: patent publication US20020042121A1, “METHOD FOR MEASURING THE ASSOCIATION OF SUBSTRUCTURES OF PATHOLOGICAL PROTEIN DEPOSITIONS” (priority 1997, published 2002)

Molecular target: T1, synthetic Aβ1-42 aggregates (Homo sapiens, UniProt P05067)
T1 construct: synthetic Aβ1-42 aggregates
Assay: FCS measurement of association of the probe Aβ1-42-Cy2 to Aβ1-42 aggregates in the presence of a suspected active substance (screening model)
Type: biochemical
Source text: A screening method for detecting active substances for the treatment of diseases associated with pathological protein depositions, which is analogous with the method according to the invention, is based on the fact that the association of substructures of the pathological protein depositions, structures forming pathological protein depositions, structures corresponding to pathological protein depositions and/or pathological protein depositions to substructures of the pathological protein depositions, structures forming pathological protein depositions, structures corresponding to pathological protein depositions as targets is measured in the presence of suspected active substances. As an alternative, association of substructures of pathological protein depositions, structures forming pathological protein depositions, structures corresponding to pathological protein depositions and/or pathological protein depositions to substructures of the pathological protein depositions, structures forming pathological protein depositions, structures corresponding to pathological protein depositions as targets is first performed, and then the reversal of the association under the action of suspected active substances is observed. Then, those compounds are identified as active substances which are capable of causing a reversal of the association in a significant way. […]

T1 sequence (P05067 672-713 limits assumed): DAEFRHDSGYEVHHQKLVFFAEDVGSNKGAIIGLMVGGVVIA

`Nc1c(/N=N/c2ccc(-c3ccc(/N=N/c4cc(S(=O)(=O)O)c5ccccc5c4N)cc3)cc2)cc(S(=O)(=O)O)c2ccccc12` [Congo red] was tested, and the “detectable peaks as compared to the control batch” value (1 mM Congo red, FCS, 20 measurements each with one minute of measuring time, FIG. 13 bottom vs top) was “significant decrease of the detectable peaks” and the activity at 1000 µM (read-out: decrease of the signal intensity of the homologous association to) was 20%.
